Test results published in patent publication US20210047291A1, “PESTICIDALLY ACTIVE HETEROCYCLIC DERIVATIVES WITH SULFUR CONTAINING SUBSTITUENTS” (SYNGENTA PARTICIPATIONS AG, priority 2018, published 2021).

Assays:
Format in all cases: in vivo
[1] = tested on: Myzus persicae (Green peach aphid); assay: Example B6: Myzus persicae systemic activity, pea seedlings; settings: for mortality at 24 ppm: Myzus persicae, 144 h, test rate of 24 ppm, mixed ages, 6 days after placing seedlings into test solutions, read-out: mortality; for mortality at 1.5 ppm: Concentration 1.5 ppm, Myzus persicae (systemic, Example B6), read-out: Mortality (%)
Description: Roots of pea seedlings infested with an aphid population of mixed ages were placed directly into aqueous test solutions prepared from 10,000 DMSO stock solutions. The samples were assessed for mortality 6 days after placing seedlings into test solutions.

[2] = tested on: Myzus persicae (Green peach aphid); assay: Example B5: Myzus persicae feeding/contact activity, sunflower leaf discs; settings: foliar; for mortality at 200 ppm: Myzus persicae, 144 h, application rate of 200 ppm, mixed ages, 6 days after infestation, read-out: mortality; for mortality at 12.5 ppm: Concentration 12.5 ppm, Myzus persicae (feeding/contact, Example B5), read-out: Mortality (%)
Description: Sunflower leaf discs were placed onto agar in a 24-well microtiter plate and sprayed with aqueous test solutions prepared from 10,000 ppm DMSO stock solutions. After drying, the leaf discs were infested with an aphid population of mixed ages. The samples were assessed for mortality 6 days after infestation.

[3] = tested on: Spodoptera littoralis (Egyptian Cotton Leaf Worm); assay: Example B9: Spodoptera littoralis, cotton leaf discs (mortality, anti-feeding, growth inhibition); settings: foliar, 72 h, application rate of 200 ppm, L1 larvae, 3 days after infestation, read-out: control (mortality, anti-feeding effect or growth inhibition)
Description: Cotton leaf discs were placed onto agar in 24-well microtiter plates and sprayed with aqueous test solutions prepared from 10,000 ppm DMSO stock solutions. After drying the leaf discs were infested with five L1 larvae. The samples were assessed for mortality, anti-feeding effect, and growth inhibition in comparison to untreated samples 3 days after infestation. Control of Spodoptera littoralis by a test sample is given when at least one of the categories mortality, anti-feedant effect, and growth inhibition is higher than the untreated sample.

[4] = tested on: Diabrotica Balteata (Corn Root Worm); assay: Example B2: Diabrotica balteata, maize sprouts, L2 larvae; settings: for percent effect (mortality or growth inhibition) at 200 ppm: Diabrotica balteata, 96 h, application rate of 200 ppm, L2 larvae, 4 days after infestation, read-out: effect in at least one of the two categories (mortality or growth inhibition)
Description: Maize sprouts placed onto an agar layer in 24-well microtiter plates were treated with aqueous test solutions prepared from 10,000 ppm DMSO stock solutions by spraying. After drying, the plates were infested with L2 larvae (6 to 10 per well). The samples were assessed for mortality and growth inhibition in comparison to untreated samples 4 days after infestation.

[5] = tested on: Plutella xylostella (Diamond Back Moth); assay: Example B7: Plutella xylostella, artificial diet, L2 larvae; settings: 120 h, application rate of 200 ppm, L2 larvae, 5 days after infestation, read-out: effect in at least one of the two categories (mortality or growth inhibition)
Description: 24-well microtiter plates with artificial diet were treated with aqueous test solutions prepared from 10,000 ppm DMSO stock solutions by pipetting. After drying, the plates were infested with L2 larvae (10 to 15 per well). The samples were assessed for mortality and growth inhibition in comparison to untreated samples 5 days after infestation.

Melodoigyne incognita = assay: Example B14: Melodoigyne incognita juvenile mobility, in vitro profiling in 96 well plate; settings: 200 ppm; after 24 h; second stage juveniles; read-out: control (juvenile mobility)
Description: Test solutions are prepared from 10,000 ppm DMSO stock solutions with a TECAN robot to achieve 20 μL of 1000, 200, 100, 50, 25 and 12.5 ppm. For each concentration three replicates are produced. Per well, 80 μL nematode solution is added containing 100 to 150 freshly harvested second stage juveniles of Melodoigyne incognita. The plates are covered and stored at room temperature in the dark and incubated for 24 h. Mobility of the exposed juveniles in a treated well is measured using an imaging tool and compared to an average of 12 untreated replicates.

[6] = tested on: Frankliniella occidentalis (Western Flower Thrips); assay: Example B4: Frankliniella occidentalis feeding/contact activity, sunflower leaf discs; settings: foliar, 168 h, application rate of 200 ppm, mixed ages, 7 days after infestation
Description: Sunflower leaf discs were placed on agar in 24-well microtiter plates and sprayed with aqueous test solutions prepared from 10,000 DMSO stock solutions. After drying the leaf discs were infested with a Frankliniella population of mixed ages. The samples were assessed for mortality 7 days after infestation.

[7] = tested on: Euschistus heros (Neotropical Brown Stink Bug); assay: Example B3: Euschistus heros, soybean leaves, N2 nymphs; settings: for percent effect (mortality or growth inhibition) at 200 ppm: Euschistus heros, 120 h, application rate of 200 ppm, N2 nymphs, 5 days after infestation, read-out: effect in at least one of the two categories (mortality or growth inhibition); for mortality at 50 ppm: Concentration 50 ppm, Euschistus heros (Example B3), read-out: Mortality (%)
Description: Soybean leaves on agar in 24-well microtiter plates were sprayed with aqueous test solutions prepared from 10,000 ppm DMSO stock solutions. After drying the leaves were infested with N2 nymphs. The samples were assessed for mortality and growth inhibition in comparison to untreated samples 5 days after infestation.

[8] = tested on: Tetranychus urticae (Two-Spotted Spider Mite); assay: Example B10: Tetranychus urticae feeding/contact activity, bean leaf discs; settings: foliar, 192 h, application rate of 200 ppm, mixed population (mobile stages), 8 days after infestation
Description: Bean leaf discs on agar in 24-well microtiter plates were sprayed with aqueous test solutions prepared from 10,000 ppm DMSO stock solutions. After drying the leaf discs were infested with a mite population of mixed ages. The samples were assessed for mortality on mixed population (mobile stages) 8 days after infestation.

[9] = tested on: Bemisia tabaci (Cotton White Fly); assay: Example B1: Bemisia tabaci feeding/contact activity, cotton leaf discs; settings: foliar, 144 h, application rate of 200 ppm, adult white flies, 6 days after incubation
Description: Cotton leaf discs were placed on agar in 24-well microtiter plates and sprayed with aqueous test solutions prepared from 10,000 ppm DMSO stock solutions. After drying the leaf discs were infested with adult white flies. The samples were checked for mortality 6 days after incubation.

| SMILES | mortality at 24 ppm [1] | mortality at 200 ppm [2] | percent control (mortality, anti-feedant effect or growth inhibition) at 200 ppm [3] | percent effect (mortality or growth inhibition) at 200 ppm [4] | percent effect (mortality or growth inhibition) at 200 ppm [5] | pest or weed control at 200 ppm (Melodoigyne incognita) | mortality at 200 ppm [6] | percent effect (mortality or growth inhibition) at 200 ppm [7] | mortality at 1.5 ppm [1] | mortality at 12.5 ppm [2] | mortality at 200 ppm [8] | mortality at 50 ppm [7] | mortality at 200 ppm [9] | Mortality (%) ([4]; Concentration 200 ppm, Diabrotica balteata (Example B2), listed as drawing 154) |
| --- | --- | --- | --- | --- | --- | --- | --- | --- | --- | --- | --- | --- | --- | --- |
| CCS(=O)(=O)c1cc(N(C)C(=O)C(C)(C)C#N)cnc1-c1nc2cc(C(F)(F)F)ncc2n1C [P43, 2-cyano-N-[5-ethylsulfonyl-6-[3-methyl-6-(trifluoromethyl)imidazo[4,5-c]pyridin-2-yl]-3-pyridyl]-N,2-dimethyl-propanamide] | ≥ 80% | ≥ 80% | ≥ 80% | ≥ 80% | ≥ 80% | ≥ 80% | ≥ 80% | ≥ 80% |  |  |  |  |  |  |
| CCN(C(C)=O)c1cnc(-c2nc3cc(C(F)(F)F)ncc3n2C)c(S(=O)(=O)CC)c1 [P21, N-ethyl-N-[5-ethylsulfonyl-6-[3-methyl-6-(trifluoromethyl)imidazo[4,5-c]pyridin-2-yl]-3-pyridyl]acetamide] | ≥ 80% | ≥ 80% |  | ≥ 80% |  | ≥ 80% | ≥ 80% | ≥ 80% | 100% | 100% | ≥ 80% | 100% |  |  |
| CCS(=O)(=O)c1cc(N(C)C(=O)C2CC2)cnc1-c1nc2cc(C(F)(F)F)ncc2n1C [P9, N-[5-ethylsulfonyl-6-[3-methyl-6-(trifluoromethyl)imidazo[4,5-c]pyridin-2-yl]-3-pyridyl]-N-methyl-cyclopropanecarboxamide] | ≥ 80% | ≥ 80% | ≥ 80% | ≥ 80% | ≥ 80% | ≥ 80% | ≥ 80% | ≥ 80% |  |  |  |  |  |  |
| CCS(=O)(=O)c1cc(N(C)C(=O)C(C)C)cnc1-c1nc2cc(C(F)(F)F)ncc2n1C [P27, N-[5-ethylsulfonyl-6-[3-methyl-6-(trifluoromethyl)imidazo[4,5-c]pyridin-2-yl]-3-pyridyl]-N,2-dimethyl-propanamide] | ≥ 80% | ≥ 80% |  |  | ≥ 80% | ≥ 80% |  | ≥ 80% |  |  |  |  | ≥ 80% |  |
| CCS(=O)(=O)c1cc(N(C)C(=O)C(F)F)cnc1-c1nc2cc(C(F)(F)F)ncc2n1C [P13, N-[5-ethylsulfonyl-6-[3-methyl-6-(trifluoromethyl)imidazo[4,5-c]pyridin-2-yl]-3-pyridyl]-2,2-difluoro-N-methyl-acetamide] | ≥ 80% | ≥ 80% | ≥ 80% | ≥ 80% | ≥ 80% | ≥ 80% |  | ≥ 80% |  |  | ≥ 80% |  |  |  |
| CCC(=O)N(C)c1cnc(-c2nc3cc(C(F)(F)F)ncc3n2C)c(S(=O)(=O)CC)c1 [P23, N-[5-ethylsulfonyl-6-[3-methyl-6-(trifluoromethyl)imidazo[4,5-c]pyridin-2-yl]-3-pyridyl]-N-methyl-propanamide] | ≥ 80% | ≥ 80% | ≥ 80% | ≥ 80% | ≥ 80% | ≥ 80% |  | ≥ 80% | 100% | 90% | ≥ 80% | 100% |  |  |
| CCS(=O)(=O)c1cc(N(C)C(=O)C2(C#N)CC2)cnc1-c1nc2cc(C(F)(F)F)ncc2n1C [P38, 1-cyano-N-[5-ethylsulfonyl-6-[3-methyl-6-(trifluoromethyl)imidazo[4,5-c]pyridin-2-yl]-3-pyridyl]-N-methyl-cyclopropanecarboxamide] | ≥ 80% | ≥ 80% |  | ≥ 80% | ≥ 80% | ≥ 80% |  | ≥ 80% |  |  | ≥ 80% |  |  |  |
| CCS(=O)(=O)c1cc(N(C)C(=O)CSC)cnc1-c1nc2cc(C(F)(F)F)ncc2n1C [P14, N-[5-ethylsulfonyl-6-[3-methyl-6-(trifluoromethyl)imidazo[4,5-c]pyridin-2-yl]-3-pyridyl]-N-methyl-2-methylsulfanyl-acetamide] | ≥ 80% | ≥ 80% | ≥ 80% | ≥ 80% |  | ≥ 80% |  | ≥ 80% |  |  |  |  | ≥ 80% |  |
| CCS(=O)(=O)c1cc(N(C(C)=O)C2(C#N)CC2)cnc1-c1nc2cc(C(F)(F)F)ncc2n1C [P42, N-(1-cyanocyclopropyl)-N-[5-ethylsulfonyl-6-[3-methyl-6-(trifluoromethyl)imidazo[4,5-c]pyridin-2-yl]-3-pyridyl]acetamide] | ≥ 80% | ≥ 80% | ≥ 80% |  | ≥ 80% | ≥ 80% |  | ≥ 80% |  |  | ≥ 80% |  |  |  |
| CCS(=O)(=O)c1cc(NC(C)=O)cnc1-c1nc2cc(C(F)(F)F)ncc2n1C [P4, N-[5-ethylsulfonyl-6-[3-methyl-6-(trifluoromethyl)imidazo[4,5-c]pyridin-2-yl]-3-pyridyl]acetamide] | ≥ 80% | ≥ 80% |  | ≥ 80% |  |  | ≥ 80% | ≥ 80% |  |  |  |  |  | 100% |
| CCC(=O)N(c1cnc(-c2nc3cc(C(F)(F)F)ncc3n2C)c(S(=O)(=O)CC)c1)C1CC1 [P40, N-cyclopropyl-N-[5-ethylsulfonyl-6-[3-methyl-6-(trifluoromethyl)imidazo[4,5-c]pyridin-2-yl]-3-pyridyl]propanamide] | ≥ 80% | ≥ 80% | ≥ 80% | ≥ 80% | ≥ 80% | ≥ 80% |  | ≥ 80% |  |  |  |  |  |  |
